Data from ChEMBL document CHEMBL5154759, “Discovery of Aryl Benzoyl Hydrazide Derivatives as Novel Potent Broad-Spectrum Inhibitors of Influenza A Virus RNA-Dependent RNA Polymerase (RdRp)” (J Med Chem, 2022).
pEC50, pKd: −log10 of the molar value. The source made the active and inactive calls. No cut-off for these calls is given here.

Columns and labels:
Influenza A virus [1] = experiment: microbe, parasite or virus in culture; conditions: H5N1, MDCK, 48 h
Influenza A virus [2] = format: functional, organism-based; conditions: A/Vietnam/1194/2004 (H5N1), MDCK, 48 h
Influenza A virus [3] = format: functional, organism-based; conditions: A/Puerto Rico/8/34 (H1N1), MDCK, 48 h
Influenza A virus [4] = format: functional, organism-based; conditions: A/Aichi/2/68 (H3N2), MDCK, 48 h
Influenza A virus [5] = format: functional, organism-based; conditions: A/Anhui/1/2013 (H7N9), MDCK, 48 h
Influenza A virus [6] = format: functional, organism-based; conditions: H5N1, MDCK, time 12.0 hrs
HEK293T [7] = experiment: Inhibition of influenza A/WSN/H1N1 virus RNA-dependent RNA polymerase activity in human 293 T cells co-transfected with pPOLI-Fluc assessed as reduction in luciferase activity at 0.01 uM incubated for 48 hrs by luciferase reporter gene assay relative to control; format: cell-based
[8] = Cmax in overnight fasted po dosed Sprague-Dawley rat plasma measured at 0.25 to 24 hrs post dose by LC-MS/MS method; format: ADME, organism-based; set-up: time upper 24 hrs, time lower 0.25 hrs, route po
HEK293T [9] = experiment: Inhibition of influenza A/WSN/H1N1 virus RNA-dependent RNA polymerase activity in human 293 T cells co-transfected with pPOLI-Fluc assessed as reduction of Fluc/Rluc ratio incubated for 48 hrs; format: cell-based; conditions: DDE = dose-dependent effect
Influenza A virus [10] = format: functional, A/PR/8/34; conditions: dose 10 mg/kg; route po; time 1 hrs
[11] = Cmax in overnight fasted iv dosed Sprague-Dawley rat plasma measured at 0.083 to 24 hrs post dose by LC-MS/MS method; format: ADME, organism-based; set-up: time upper 24 hrs, time lower 0.083 hrs, route iv
Influenza A virus [12] = format: functional, organism-based; conditions: H5N1, MDCK, dose 0.03-100 µM, time 12.0 hrs, DDE = dose-dependent effect
A549 = experiment: Induction of ROS generation in human A549 cells at 50 ug/ml incubated for 30 mins by DCFH-DA dye based fluorescence microscopy; format: functional, cell-based; conditions: dose 50.0 µg/ml
[13] = Acute toxicity in BALB/c mouse infected with influenza A virus A/PR/8/34 assessed as reduction in body weight at 2000 mg/kg, po administered 3 times per day; format: organism-based; conditions: in vivo
HEK293T [14] = experiment: Inhibition of influenza A/WSN/H1N1 virus RNA-dependent RNA polymerase activity in human 293 T cells co-transfected with pPOLI-Fluc assessed as reduction in luciferase activity at 0.1 uM incubated for 48 hrs by luciferase reporter gene assay relative to control; format: cell-based
HEK293T [15] = experiment: Inhibition of influenza A/WSN/H1N1 virus RNA-dependent RNA polymerase activity in human 293 T cells co-transfected with pPOLI-Fluc assessed as reduction in luciferase activity incubated for 48 hrs by luciferase reporter gene assay; format: cell-based
[16] = Elimination half life in overnight fasted Sprague-Dawley rat at 0.20 ml, iv measured at 0.083 to 24 hrs post dose by LC-MS/MS method; format: ADME, organism-based; conditions: in vivo, 0.2 ml, time 0.083-24 hrs, read-out: beta t1/2 (converted)
[17] = Binding affinity to influenza A virus RNA-dependent RNA polymerase PB1 subunit expressed in human 293T cells assessed as dissociation constant by MST assay; conditions: hek293t
Influenza A virus [18] = format: functional, organism-based; conditions: H5N1, A549, dose 0.018 µM, time 1.0 hrs
[19] = Elimination half life in overnight fasted po dosed Sprague-Dawley rat measured at 0.25 to 24 hrs post dose by LC-MS/MS method; format: ADME, organism-based; conditions: in vivo, time 0.25-24 hrs, read-out: beta t1/2 (converted)
[20] = Tmax in overnight fasted po dosed Sprague-Dawley rat plasma measured at 0.25 to 24 hrs post dose by LC-MS/MS method; format: ADME, organism-based; conditions: time 0.25-24 hrs
Influenza A virus [21] = format: functional, organism-based; conditions: H5N1, MDCK, dose 1.0 µM, time 48.0 hrs
[22] = Bioavailability in overnight fasted iv dosed Sprague-Dawley rat measured at 0.083 to 24 hrs post dose by LC-MS/MS method; format: ADME, organism-based; conditions: in vivo, time 0.083-24 hrs
[23] = Clearance in overnight fasted iv dosed Sprague-Dawley rat measured at 0.083 to 24 hrs post dose by LC-MS/MS method; format: ADME, organism-based; conditions: in vivo, time 0.083-24 hrs
Influenza A virus [24] = format: functional, organism-based; conditions: H5N1, MDCK, DDE = dose-dependent effect
Influenza A virus [25] = format: functional, organism-based; conditions: H5N1, MDCK
[26] = AUC(0 to infinity) in overnight fasted po dosed Sprague-Dawley rat measured at 0.25 to 24 hrs post dose by LC-MS/MS method; format: ADME, organism-based; set-up: time upper 24 hrs, time lower 0.25 hrs, route po; conditions: in vivo
[27] = AUC(0 to infinity) in overnight fasted iv dosed Sprague-Dawley rat measured at 0.083 to 24 hrs post dose by LC-MS/MS method; format: ADME, organism-based; set-up: time 0.083-24 hrs, route iv; conditions: in vivo
[28] = Tmax in overnight fasted iv dosed Sprague-Dawley rat plasma measured at 0.083 to 24 hrs post dose by LC-MS/MS method; format: ADME, organism-based; conditions: time 0.083-24 hrs
[29] = AUC(0 to t) in overnight fasted po dosed Sprague-Dawley rat measured at 0.25 to 24 hrs post dose by LC-MS/MS method; format: ADME, organism-based; set-up: time 0.25-24 hrs, route po; conditions: in vivo
[30] = AUC(0 to t) in overnight fasted iv dosed Sprague-Dawley rat measured at 0.083 to 24 hrs post dose by LC-MS/MS method; format: ADME, organism-based; set-up: time upper 24 hrs, time lower 0.083 hrs, route iv; conditions: in vivo
Influenza A virus [31] = format: functional, organism-based; conditions: H5N1, MDCK, dose 0.8 µM, time 12.0 hrs
[32] = Oral bioavailability in overnight fasted Sprague-Dawley rat measured at 0.25 to 24 hrs post dose by LC-MS/MS method; format: ADME, organism-based; conditions: in vivo, time 0.25-24 hrs
Influenza A virus [33] = format: functional; conditions: H5N1, MDCK, time 12 hrs
Influenza A virus [34] = format: functional, A/PR/8/34; conditions: dose 20 mg/kg; route ig; time 1 hrs
Influenza A virus [35] = conditions: mdck
Influenza A virus [36] = experiment: Antiviral activity against influenza A virus (A/Vietnam/1203/2004) H5N1; format: functional, organism-based; conditions: (A/Vietnam/1203/2004) H5N1, MDCK
Influenza A virus [37] = experiment: Antiviral activity against influenza A virus (A/Puerto Rico/8/34) H1N1; format: functional, organism-based; conditions: (A/Puerto Rico/8/34) H1N1, MDCK

CCOc1ccc(C(=O)Nc2c(Br)cccc2Br)cc1
pEC50 (Influenza A virus [1]): < 4.00

O=C(NNc1c(Br)cccc1Br)c1ccc(-c2ccccc2)cc1
pEC50 (Influenza A virus [1]): 7.08

O=C(NNc1c(Br)cccc1Br)c1ccc(F)cc1
pEC50 (Influenza A virus [1]): 4.06

CCOc1ccc(C(=O)NNc2c(F)cccc2F)cc1
pEC50 (Influenza A virus [1]): 4.51

CCCCOc1ccc(C(=O)NNc2c(Br)cccc2Br)cc1
pEC50 (Influenza A virus [1]): 6.64

COc1ccc(C(=O)NNc2c(F)cccc2F)cc1
pEC50 (Influenza A virus [1]): < 4.00

CCOc1ccc(C(=O)NNc2c(Cl)cccc2Cl)cc1
pEC50 (Influenza A virus [1]): 7.11

O=C(NNc1c(Br)cccc1Br)c1ccc2c(c1)OCO2
pEC50 (Influenza A virus [1]): 4.89

O=c1oc2cc(O)cc(O)c2c2ccccc12
pEC50 (Influenza A virus [2]): 5.77
pEC50 (Influenza A virus [3]): 5.77
pEC50 (Influenza A virus [4]): 5.77
pEC50 (Influenza A virus [5]): 5.77

CC(C)(C)c1ccc(C(=O)NNc2c(Br)cccc2Br)cc1
pEC50 (Influenza A virus [1]): 7.43

O=C(NNc1c(Br)cccc1Br)c1ccc2ccccc2c1
pEC50 (Influenza A virus [1]): 5.92

Cc1cccc(C)c1NNC(=O)c1ccc(C(C)(C)C)cc1
pEC50 (Influenza A virus [1]): 6.66

COc1ccc(C(=O)NNc2c(Br)cccc2Br)cc1
pEC50 (Influenza A virus [1]): 5.64

CCc1ccc(C(=O)NNc2c(Br)cc(Br)cc2Br)cc1
pEC50 (Influenza A virus [1]): 5.36

CCOc1ccc(C(=O)NNc2ccc(Br)cc2)cc1
pEC50 (Influenza A virus [1]): < 4.00

O=C(NNc1c(Br)cccc1Br)c1ccc(O)cc1
pEC50 (Influenza A virus [1]): < 4.00

NC(=O)c1nc(F)cnc1O
Activity (Influenza A virus [6]): Active

CCOc1ccc(C(=O)NNc2c(Br)cc(Br)cc2Br)cc1
pEC50 (Influenza A virus [1]): 5.38

CCc1ccc(C(=O)NNc2c(Br)cccc2Br)cc1
pEC50 (Influenza A virus [1]): 7.11

CCOc1ccc(C(=O)NNc2c(Br)cccc2Br)cc1
pEC50 (Influenza A virus [1]): 7.47

CCCc1ccc(C(=O)NNc2c(Cl)cccc2Cl)cc1
pEC50 (Influenza A virus [1]): 6.72

O=C(NNc1c(Br)cccc1Br)c1ccc2ncccc2c1
pEC50 (Influenza A virus [1]): 4.62

CCCOc1ccc(C(=O)NNc2c(Br)cccc2Br)cc1
pEC50 (Influenza A virus [1]): 7.64

O=C(NNc1c(Br)cccc1Br)c1ccc(B(O)O)cc1
pEC50 (Influenza A virus [1]): < 4.00

N#Cc1ccc(C(=O)NNc2c(Br)cccc2Br)cc1
pEC50 (Influenza A virus [1]): < 4.00

O=C(NNc1c(Cl)cccc1Cl)c1cccs1
pEC50 (Influenza A virus [1]): < 4.00

O=C(NNc1c(Br)cccc1Br)c1ccc(OCC(F)(F)F)cc1
pEC50 (Influenza A virus [1]): 7.47

COC(=O)c1ccc(C(=O)NNc2c(Br)cccc2Br)cc1
pEC50 (Influenza A virus [1]): 6.48

CCOc1ccc(C(=O)NNc2cccc(Br)c2)cc1
pEC50 (Influenza A virus [1]): < 4.00

CCOc1ccc(C(=O)NNc2ccccc2Br)cc1
pEC50 (Influenza A virus [1]): < 4.00

CN(C)c1ccc(C(=O)NNc2c(Br)cc(Br)cc2Br)cc1
pEC50 (Influenza A virus [1]): 6.64

O=C(NNc1c(Br)cccc1Br)c1ccccc1
pEC50 (Influenza A virus [1]): 4.09

CCOc1ccc(C(=O)NNc2c(C)cccc2Cl)cc1
pEC50 (Influenza A virus [1]): 7.00

O=C(NNc1c(Br)cccc1Br)c1ccc(Br)cc1
pEC50 (Influenza A virus [1]): 4.66

CN(C)c1ccc(C(=O)NNc2c(Cl)cccc2Cl)cc1
pEC50 (Influenza A virus [1]): 7.34

O=C(O)c1ccc(C(=O)NNc2c(Br)cccc2Br)cc1
pEC50 (Influenza A virus [1]): < 4.00

CCOc1ccc(C(=O)NNc2c(C)cccc2C)cc1
pEC50 (Influenza A virus [1]): 6.34

Cc1ccc(C(=O)NNc2c(Cl)cccc2Cl)cc1
pEC50 (Influenza A virus [1]): 5.39

O=C(NNc1c(Br)cccc1Br)c1cccnc1
pEC50 (Influenza A virus [1]): < 4.00

CN(C)c1ccc(C(=O)NNc2c(F)cccc2F)cc1
pEC50 (Influenza A virus [1]): < 4.00

CCOc1ccc(C(=O)NNc2ccc(Br)cc2Br)cc1
pEC50 (Influenza A virus [1]): < 4.00

COc1cccc(C(=O)NNc2c(Br)cccc2Br)c1
pEC50 (Influenza A virus [1]): < 4.00

CCOc1ccc(C(=O)N(C)Nc2c(Cl)cccc2Cl)cc1
pEC50 (Influenza A virus [1]): < 4.00

COc1ccccc1C(=O)NNc1c(Br)cccc1Br
pEC50 (Influenza A virus [1]): < 4.00

O=C(NNc1c(Br)cccc1Br)c1ccc(N2CCOCC2)cc1
inhibition (HEK293T [7]): 60%
Cmax [8]: 635 ng/mL
Activity (HEK293T [9]): Dde
Activity (Influenza A virus [10]): 100%
Cmax [11]: 2520 ng/mL
Activity (Influenza A virus [12]): Dde
Activity (A549): Active
Activity [13]: Toxic
inhibition (HEK293T [14]): 91%
Activity (HEK293T [15]): Active
half-life [16]: 90 min
pKd [17]: 6.45
Activity (Influenza A virus [18]): Active
half-life [19]: 109 min
Tmax [20]: 25.2 min
Activity (Influenza A virus [21]): Active
F [22]: 100%
clearance [23]: 33.8 mL/min/kg
Activity (Influenza A virus [24]): Dde
Activity (Influenza A virus [25]): Active
AUC(0-inf) [26]: 1710 ng·h/mL
AUC(0-inf) [27]: 1500 ng·h/mL
Tmax [28]: 4.8 min
pEC50 (Influenza A virus [1]): 7.74
AUC(0-t) [29]: 1590 ng·h/mL
AUC(0-t) [30]: 1480 ng·h/mL
Activity (Influenza A virus [31]): Active
bioavailability [32]: 32.2%
Activity (Influenza A virus [6]): Active
inhibition at 0.03 µM (Influenza A virus [33]): > 50%
Activity (Influenza A virus [34]): 70%

CCN(CC)c1ccc(C(=O)NNc2c(Br)cccc2Br)cc1
pEC50 (Influenza A virus [1]): 8.03

CN(C)c1ccc(C(=O)NNc2c(Br)cccc2Br)cc1
pEC50 (Influenza A virus [1]): 7.51

Nc1ccc(C(=O)NNc2c(Br)cccc2Br)cc1
pEC50 (Influenza A virus [1]): 5.11

CC(=O)N[C@H]1[C@H]([C@H](O)[C@H](O)CO)OC(C(=O)O)=C[C@@H]1NC(=N)N [ZANAMIVIR]
pEC50 (Influenza A virus [35]): 6.80
pEC50 (Influenza A virus [1]): 7.12

O=C(NNc1c(Cl)cccc1Cl)c1ccccc1
pEC50 (Influenza A virus [1]): < 4.00

O=C(O)[C@H]1C2CCC(CC2)[C@@H]1Nc1nc(-c2c[nH]c3ncc(F)cc23)ncc1F [PIMODIVIR]
pEC50 (Influenza A virus [36]): 10.00
pEC50 (Influenza A virus [37]): 9.52
